Test results as given in patent US11111264B2, “Morphic forms of 4-amino-7-(3,4-dihydroxy-5-(hydroxymethyl)tetrahydrofuran-2-yl)-2-methyl-7H-pyrrolo[2,3-d]pyrimidine-5-carboxamide and uses thereof” (Chimerix, Inc., priority 2017, dated 2021).
In brackets after ≈: the same amount, converted by molar mass.

Key:
Assay type in all cases: physicochemical
[1] = Approximate solubility of Compound 1 in various solvents (stepwise solvent addition); conditions: thermodynamic from solid, read-out: Solubility [S, mg/mL]
Procedure: To determine approximate solubility of Compound 1, solvent was added in steps to the solid material (about 20 to 100 mg). The solubility values were rough approximations. Therefore, these values were used solely for the preliminary design of subsequent crystallization experiments.

[2] = Exact solubility of Compound 1 Form A in selected solvent systems (1 day suspension, HPLC); conditions: for solubility at 1 day: thermodynamic from solid
Procedure: The exact solubilities of Compound 1 Form A in selected solvent systems were determined at 24° C. and 60° C. About 100 mg of Compound 1 Form A were suspended in 2.0 mL of solvent and stirred using a magnetic stirrer bar for 1 day at 24° C. or 60° C., followed by filter centrifugation at the corresponding temperature. The concentration of Compound 1 was then determined by HPLC.
The exact solubilities of Form A in selected solvent systems were determined at 24° C. and 60° C. About 100 mg of Compound 1 were suspended in 2.0 mL of solvent and stirred using a magnetic stirrer bar for 1 day at 24° C. or 60° C., followed by filter centrifugation at the corresponding temperature. The concentration of Compound 1 was then determined by HPLC.

[3] = Chemical stability when stirring suspension at 75° C. (Experiment No. 26); conditions: 1-propanol/0.01 M NaOH aq 1:2 v/v; stirring at 75° C. overnight
Procedure: Experiment No. 26 tested seeding behavior at 75° C. at the 16 g scale as well as chemical stability when stirring suspensions at 75° C. for extended times.
16.02 g of Compound 1 were placed in a 300 mL glass reactor (diameter 70 mm) and 200 mL of 1-propanol/0.01 M NaOH aq 1:2 v/v were added at room temperature. The suspension was stirred using a two-bladed impeller (diameter 40 mm; 500 rpm) and heated to 90° C. in 30 minutes. After stirring at 90° C. for about 15 minutes (500 rpm) the solution formed was cooled to 75° C. with a cooling rate of 15K/hour and stirred at 75° C. for 10 minutes.
At 75° C. the solution was seeded with a suspension of 158 mg of crude Compound 1 in 5 mL of water. The weak suspension formed was stirred at 75° C. overnight followed by hot filtration (sintered glass funnel, porosity P4, diameter 65 mm; the suspension was easy to filter). The glass reactor was flushed with 20 mL of water and the washing suspension was also filtered. The filter cake was again washed with 20 mL of water and air dried for 20 minutes by drawing ambient air through the glass funnel.

Cc1nc(N)c2c(C(N)=O)cn([C@@H]3O[C@H](CO)[C@@H](O)[C@H]3O)c2n1 [Compound 1, 4-amino-7-((2R,3R,4S,5R)-3,4-dihydroxy-5-(hydroxymethyl)tetrahydrofuran-2-yl)-2-methyl-7H-pyrrolo[2,3-d]pyrimidine-5-carboxamide]
solubility ([1]; aqueous buffer, NaOH aq 0.1M, 60° C.): ~9 mg/mL (≈ 27.8 mM) | solubility ([1]; aqueous buffer, NaOH aq 0.1M, RT): ~3 mg/mL (≈ 9.28 mM) | solubility ([1]; aqueous buffer, NaOH aq 0.5M, 60° C.): ~38 mg/mL (≈ 118 mM) | solubility ([1]; aqueous buffer, NaOH aq 0.5M, RT): ~16 mg/mL (≈ 49.5 mM) | solubility ([1]; aqueous buffer, NaOH aq 1M, 60° C.): ~95 mg/mL (≈ 294 mM) | solubility ([1]; aqueous buffer, NaOH aq 1M, RT): ~60 mg/mL (≈ 186 mM) | solubility ([1]; aqueous with cosolvent or surfactant or cyclodextrin, 1-Propanol/water 1:2 v/v, RT): ~6 mg/mL (≈ 18.6 mM) | solubility ([1]; aqueous with cosolvent or surfactant or cyclodextrin, 1-Propanol/water 1:2 v/v, at 80° C.): ~51 mg/mL (≈ 158 mM) | solubility ([1]; aqueous with cosolvent or surfactant or cyclodextrin, 1-Propanol/water 2:1 v/v, RT): ~7 mg/mL (≈ 21.7 mM) | solubility ([1]; aqueous with cosolvent or surfactant or cyclodextrin, 2-Propanol/NaOH aq 0.1M 1:1 v/v, RT): ~16 mg/mL (≈ 49.5 mM) | solubility ([1]; aqueous with cosolvent or surfactant or cyclodextrin, 2-Propanol/water 1:1 v/v, RT): ~7 mg/mL (≈ 21.7 mM) | solubility ([1]; aqueous with cosolvent or surfactant or cyclodextrin, 2-Propanol/water 1:2 v/v, RT): ~5 mg/mL (≈ 15.5 mM) | solubility ([1]; aqueous with cosolvent or surfactant or cyclodextrin, 2-Propanol/water 1:2 v/v, at 70° C.): ~31 mg/mL (≈ 95.9 mM) | solubility ([1]; aqueous with cosolvent or surfactant or cyclodextrin, 2-Propanol/water 2:1 v/v, RT): ~6 mg/mL (≈ 18.6 mM) | solubility ([1]; aqueous with cosolvent or surfactant or cyclodextrin, DMSO/NaOH aq 0.1M 1:1 v/v, RT): ~20 mg/mL (≈ 61.9 mM) | solubility ([1]; aqueous with cosolvent or surfactant or cyclodextrin, DMSO/water 1:1 v/v, RT): ~8 mg/mL (≈ 24.7 mM) | solubility ([1]; aqueous with cosolvent or surfactant or cyclodextrin, DMSO/water 1:1 v/v, at 80° C.): ~45 mg/mL (≈ 139 mM) | solubility ([1]; aqueous with cosolvent or surfactant or cyclodextrin, DMSO/water 1:2 v/v, RT): ~3 mg/mL (≈ 9.28 mM) | solubility ([1]; aqueous with cosolvent or surfactant or cyclodextrin, THF/water 1:1 v/v, RT): ~22 mg/mL (≈ 68 mM) | solubility ([1]; aqueous with cosolvent or surfactant or cyclodextrin, THF/water 1:4 v/v, RT): ~6 mg/mL (≈ 18.6 mM) | solubility ([1]; aqueous with cosolvent or surfactant or cyclodextrin, THF/water 4:1 v/v, RT): ~15 mg/mL (≈ 46.4 mM) | solubility ([1]; organic solvent or mixture, DMSO, RT): ~500 mg/mL (≈ 1550 mM) | solubility ([1]; organic solvent or mixture, Ethanol, RT): 1.7 mg/mL (≈ 5.26 mM) | solubility ([1]; organic solvent or mixture, THF, RT): < 1 mg/mL | solubility ([1]; Water, 60° C.): ~3 mg/mL (≈ 9.28 mM) | solubility ([1]; Water, RT): < 1.3 mg/mL | solubility at 1 day ([2]; 0.1 M aqueous NaOH, aqueous buffer, NaOH aq 0.1M, 24° C.): 2.8 mg/mL (≈ 8.66 mM) | solubility at 1 day ([2]; 0.1 M aqueous NaOH, aqueous buffer, NaOH aq 0.1M, 60° C.): 8 mg/mL (≈ 24.7 mM) | solubility at 1 day ([2]; DMSO/0.01 M aqueous NaOH 1:2 v/v, aqueous with cosolvent or surfactant or cyclodextrin, DMSO/NaOH aq 0.01M 1:2 v/v, 24° C.): 4.8 mg/mL (≈ 14.8 mM) | solubility at 1 day ([2]; DMSO/0.01 M aqueous NaOH 1:2 v/v, aqueous with cosolvent or surfactant or cyclodextrin, DMSO/NaOH aq 0.01M 1:2 v/v, 60° C.): 19.6 mg/mL (≈ 60.6 mM) | solubility at 1 day ([2]; DMSO/0.1 M aqueous NaOH 1:2 v/v, aqueous with cosolvent or surfactant or cyclodextrin, DMSO/NaOH aq 0.1M 1:2 v/v, 24° C.): 12.5 mg/mL (≈ 38.7 mM) | solubility ([2]; NaOH aq 0.01M, 24° C.): 0.81 mg/mL (≈ 2.51 mM) | solubility at 1 day ([2]; aqueous with cosolvent or surfactant or cyclodextrin, 1-Propanol/NaOH aq 0.01M 1:3 v/v, 24° C.): 6.8 mg/mL (≈ 21 mM) | solubility at 1 day ([2]; aqueous with cosolvent or surfactant or cyclodextrin, 1-Propanol/NaOH aq 0.01M 1:3 v/v, 60° C.): 25.9 mg/mL (≈ 80.1 mM) | solubility at 1 day ([2]; aqueous with cosolvent or surfactant or cyclodextrin, 1-Propanol/NaOH aq 0.1M 1:3 v/v, 24° C.): 16.6 mg/mL (≈ 51.3 mM) | solubility at 1 day ([2]; aqueous with cosolvent or surfactant or cyclodextrin, 1-Propanol/water 1:2 v/v, 60° C.): 30.9 mg/mL (≈ 95.6 mM) | solubility at 1 day ([2]; aqueous with cosolvent or surfactant or cyclodextrin, 2-Propanol/NaOH aq 0.01M 1:3 v/v, 24° C.): 5.2 mg/mL (≈ 16.1 mM) | solubility at 1 day ([2]; aqueous with cosolvent or surfactant or cyclodextrin, 2-Propanol/NaOH aq 0.01M 1:3 v/v, 60° C.): 16.9 mg/mL (≈ 52.3 mM) | solubility at 1 day ([2]; aqueous with cosolvent or surfactant or cyclodextrin, 2-Propanol/NaOH aq 0.1M 1:3 v/v, 24° C.): 14.1 mg/mL (≈ 43.6 mM) | solubility at 1 day ([2]; aqueous with cosolvent or surfactant or cyclodextrin, 2-Propanol/water 1:2 v/v, 60° C.): 26.6 mg/mL (≈ 82.3 mM) | solubility at 1 day ([2]; aqueous with cosolvent or surfactant or cyclodextrin, DMSO/water 1:1 v/v, 60° C.): 18.7 mg/mL (≈ 57.8 mM) | solubility at 1 day ([2]; aqueous with cosolvent or surfactant or cyclodextrin, Ethanol/NaOH aq 0.01M 1:3 v/v, 24° C.): 3.3 mg/mL (≈ 10.2 mM) | solubility at 1 day ([2]; aqueous with cosolvent or surfactant or cyclodextrin, Ethanol/NaOH aq 0.01M 1:3 v/v, 60° C.): 15.3 mg/mL (≈ 47.3 mM) | solubility at 1 day ([2]; aqueous with cosolvent or surfactant or cyclodextrin, Ethanol/NaOH aq 0.1M 1:3 v/v, 24° C.): 9 mg/mL (≈ 27.8 mM) | chemical stability of suspension [3]: chemically stable
